Test results as given in patent publication US12077503B2, “Substituted cyclic amides and their use as herbicides” (FMC CORPORATION, priority 2015, dated 2024).

Tests used:
Assay in all cases: Test C preemergence
Type in all cases: in vivo
Settings in all cases: scale 0 to 100, 0 no effect, 100 complete control
[1] = tested on: oilseed rape (Brassica napus)
Procedure, shortened: (§1)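 Herbicidal effect, applied preemergence to sown seeds or postemergence to 1- to 4-leaf plants, was scored visually 13 to 15 d after application, 0 to 100 versus controls.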

[2] = tested on: Galium (catchweed bedstraw, Galium aparine)
Procedure, shortened: as §1

[3] = tested on: johnsongrass (Sorghum halepense)
Procedure, shortened: as §1

[4] = tested on: crabgrass, large (large crabgrass, Digitaria sanguinalis)
Procedure, shortened: as §1

[5] = tested on: lambsquarters (Chenopodium album)
Procedure, shortened: as §1

[6] = tested on: ryegrass, Italian (Italian ryegrass, Lolium multiflorum)
Procedure, shortened: as §1

[7] = tested on: barnyardgrass (Echinochloa crus-galli)
Procedure, shortened: as §1

soybean (Glycine max) = tested on: soybean (Glycine max)
Procedure, shortened: as §1

[8] = tested on: nutsedge, yellow (yellow nutsedge, Cyperus esculentus)
Procedure, shortened: as §1

[9] = tested on: wheat (winter wheat, Triticum aestivum)
Procedure, shortened: as §1

[10] = tested on: morningglory (Ipomoea coccinea)
Procedure, shortened: as §1

[11] = tested on: waterhemp (common waterhemp, Amaranthus rudis)
Procedure, shortened: as §1

corn (Zea mays) = tested on: corn (Zea mays)
Procedure, shortened: as §1

[12] = tested on: blackgrass (Alopecurus myosuroides)
Procedure, shortened: as §1

[13] = tested on: ragweed (common ragweed, Ambrosia elatior)
Procedure, shortened: as §1

[14] = tested on: velvetleaf (Abutilon theophrasti)
Procedure, shortened: as §1

CN1CC(c2cccc(OC(F)(F)C(F)F)c2)C(C(=O)Nc2ccc(F)c(F)c2F)C1=O (stereo not shown) [Compound 429] was tested, and the “Plant response rating, Oilseed Rape” value ([1]; 31 g ai/ha) was 80, the “Plant response rating, Oilseed Rape” value ([1]; 62 g ai/ha) was 80 and the “Plant response rating, Oilseed Rape” value ([1]; 125 g ai/ha) was 90. For the same molecule, the “Plant response rating, Oilseed Rape” value ([1]; 250 g ai/ha) was 90, the “Plant response rating, Galium” value ([2]; 31 g ai/ha) was 100 and the “Plant response rating, Galium” value ([2]; 62 g ai/ha) was 100. For the same molecule, the “Plant response rating, Galium” value ([2]; 125 g ai/ha) was 100, the “Plant response rating, Galium” value ([2]; 250 g ai/ha) was 100 and the “Plant response rating, Johnsongrass” value ([3]; 31 g ai/ha) was 75. The “Plant response rating, Johnsongrass” value ([3]; 62 g ai/ha) was 95, the “Plant response rating, Johnsongrass” value ([3]; 125 g ai/ha) was 95 and the “Plant response rating, Johnsongrass” value ([3]; 250 g ai/ha) was 90. The “Plant response rating, Crabgrass, Large” value ([4]; 31 g ai/ha) was 95, the “Plant response rating, Crabgrass, Large” value ([4]; 62 g ai/ha) was 98 and the “Plant response rating, Crabgrass, Large” value ([4]; 125 g ai/ha) was 98. For the same molecule, the “Plant response rating, Crabgrass, Large” value ([4]; 250 g ai/ha) was 98, the “Plant response rating, Lambsquarters” value ([5]; 31 g ai/ha) was 60 and the “Plant response rating, Lambsquarters” value ([5]; 62 g ai/ha) was 75. For the same molecule, the “Plant response rating, Lambsquarters” value ([5]; 125 g ai/ha) was 75, the “Plant response rating, Lambsquarters” value ([5]; 250 g ai/ha) was 85 and the “Plant response rating, Ryegrass, Italian” value ([6]; 62 g ai/ha) was 85. The “Plant response rating, Ryegrass, Italian” value ([6]; 125 g ai/ha) was 85, the “Plant response rating, Ryegrass, Italian” value ([6]; 250 g ai/ha) was 65 and the “Plant response rating, Barnyardgrass” value ([7]; 31 g ai/ha) was 85. The “Plant response rating, Barnyardgrass” value ([7]; 62 g ai/ha) was 95, the “Plant response rating, Barnyardgrass” value ([7]; 125 g ai/ha) was 95 and the “Plant response rating, Barnyardgrass” value ([7]; 250 g ai/ha) was 98. The “Plant response rating, Soybean” value (soybean (Glycine max); 125 g ai/ha) was 0, the “Plant response rating, Soybean” value (soybean (Glycine max); 250 g ai/ha) was 10 and the “Plant response rating, Nutsedge, Yellow” value ([8]; 31 g ai/ha) was 0. The “Plant response rating, Nutsedge, Yellow” value ([8]; 62 g ai/ha) was 0, the “Plant response rating, Nutsedge, Yellow” value ([8]; 125 g ai/ha) was 0 and the “Plant response rating, Nutsedge, Yellow” value ([8]; 250 g ai/ha) was 0. The “Plant response rating, Wheat” value ([9]; 62 g ai/ha) was 60, the “Plant response rating, Wheat” value ([9]; 125 g ai/ha) was 70 and the “Plant response rating, Wheat” value ([9]; 250 g ai/ha) was 60. For the same molecule, the “Plant response rating, Morningglory” value ([10]; 31 g ai/ha) was 35, the “Plant response rating, Morningglory” value ([10]; 62 g ai/ha) was 30 and the “Plant response rating, Morningglory” value ([10]; 125 g ai/ha) was 20. For the same molecule, the “Plant response rating, Morningglory” value ([10]; 250 g ai/ha) was 60, the “Plant response rating, Waterhemp” value ([11]; 62 g ai/ha) was 85 and the “Plant response rating, Waterhemp” value ([11]; 125 g ai/ha) was 90. The “Plant response rating, Waterhemp” value ([11]; 250 g ai/ha) was 90, the “Plant response rating, Corn” value (corn (Zea mays); 31 g ai/ha) was 0 and the “Plant response rating, Corn” value (corn (Zea mays); 62 g ai/ha) was 40. The “Plant response rating, Corn” value (corn (Zea mays); 125 g ai/ha) was 65, the “Plant response rating, Corn” value (corn (Zea mays); 250 g ai/ha) was 90 and the “Plant response rating, Blackgrass” value ([12]; 31 g ai/ha) was 70. The “Plant response rating, Blackgrass” value ([12]; 62 g ai/ha) was 90, the “Plant response rating, Blackgrass” value ([12]; 125 g ai/ha) was 90 and the “Plant response rating, Blackgrass” value ([12]; 250 g ai/ha) was 95. For the same molecule, the “Plant response rating, Ragweed” value ([13]; 31 g ai/ha) was 0, the “Plant response rating, Ragweed” value ([13]; 62 g ai/ha) was 40 and the “Plant response rating, Ragweed” value ([13]; 125 g ai/ha) was 75. The “Plant response rating, Ragweed” value ([13]; 250 g ai/ha) was 75, the “Plant response rating, Velvetleaf” value ([14]; 62 g ai/ha) was 40 and the “Plant response rating, Velvetleaf” value ([14]; 125 g ai/ha) was 30. The “Plant response rating, Velvetleaf” value ([14]; 250 g ai/ha) was 45.
